Here are results for one compound from article PMC10193543 (ACS Omega, 2023).

Assay [1] concerns the target T1, mushroom TYR (Agaricus bisporus, UniProt C7FF04). The assay is described as follows: biochemical. The settings on record: read-out: % inhibition at 25 μg/mL.
Target sequence in this assay (C7FF04 2-392): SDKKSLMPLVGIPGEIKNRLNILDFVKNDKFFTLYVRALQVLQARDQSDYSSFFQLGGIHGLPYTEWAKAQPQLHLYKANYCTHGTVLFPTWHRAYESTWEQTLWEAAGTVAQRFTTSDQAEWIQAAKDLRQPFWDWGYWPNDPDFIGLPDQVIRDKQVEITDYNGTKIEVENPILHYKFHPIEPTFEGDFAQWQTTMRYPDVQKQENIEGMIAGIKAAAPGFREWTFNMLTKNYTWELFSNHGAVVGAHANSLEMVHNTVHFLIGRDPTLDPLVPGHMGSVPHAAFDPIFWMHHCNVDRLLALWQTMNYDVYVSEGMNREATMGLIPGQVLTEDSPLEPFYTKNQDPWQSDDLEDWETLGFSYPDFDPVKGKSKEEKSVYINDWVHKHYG
The target in assay [2] is T1, mushroom TYR. Kind of assay: Kinetic study of tyrosinase inhibitory activity. The class given is biochemical.
Target sequence in this assay (C7FF04 1-392 limits assumed): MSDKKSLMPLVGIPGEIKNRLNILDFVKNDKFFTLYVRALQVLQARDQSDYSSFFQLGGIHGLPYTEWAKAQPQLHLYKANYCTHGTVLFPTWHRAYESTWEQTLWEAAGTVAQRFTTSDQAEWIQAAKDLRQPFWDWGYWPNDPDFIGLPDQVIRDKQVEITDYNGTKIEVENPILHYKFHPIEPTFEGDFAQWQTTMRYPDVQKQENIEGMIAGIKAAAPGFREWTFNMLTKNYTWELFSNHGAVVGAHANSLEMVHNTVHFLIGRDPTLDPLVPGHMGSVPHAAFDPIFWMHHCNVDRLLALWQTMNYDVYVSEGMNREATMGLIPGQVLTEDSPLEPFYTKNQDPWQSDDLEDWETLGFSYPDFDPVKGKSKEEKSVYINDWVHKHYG

Structures are written as SMILES.

What is called Ki is a dissociation constant, usually derived from enzyme kinetics or from competition with a known ligand. The low end stands for higher affinity, the high end for lower affinity. `COc1ccc(C2CC(c3ccc(C)cc3)=Nc3ccccc3S2)cc1OC` (stereo not drawn) [compound 2, 2-(3,4-dimethoxyphenyl)-4-(p-tolyl)-2,3-dihydrobenzo[b][1,4]thiazepine]: the inhibition at 25 µg/mL at mushroom TYR [1] came out at 89 ± 3%. The same compound displayed a Ki on mushroom TYR [2] of 1.01 µM. Moreover, on mushroom TYR [2] (diphenolase activity, L-DOPA oxidation, Lineweaver–Burk plots), the inhibition type entry is given as “mixed-type inhibition”.
